Tests used:
[1] = molecular target: human C5a receptor (C5aR) (Homo sapiens (Human), UniProt P21730); experiment: Inhibition of C5a-C5aR binding (biotinylated human C5a, U937/C5aR cells, FACS)
How it was run: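 U937 cells stably expressing human C5aR, 3×10^6 cells/ml in PBS+0.1% BSA, were co-incubated with compound and biotinylated human C5a (30 nM, working solution) on ice for 120 min. Bound ligand was stained with FITC-streptavidin for 30 min on ice and read by flow cytometry.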

C5aR [2] = molecular target: T1, C5aR (Homo sapiens (Human), UniProt P21730); experiment: Inhibition of C5a-C5aR binding determined by cell migration assay (U937/C5aR cells); format: cell-based; conditions: U937/C5aR cell migration towards human C5a, 180 min
T1 sequence (P21730 whole entry): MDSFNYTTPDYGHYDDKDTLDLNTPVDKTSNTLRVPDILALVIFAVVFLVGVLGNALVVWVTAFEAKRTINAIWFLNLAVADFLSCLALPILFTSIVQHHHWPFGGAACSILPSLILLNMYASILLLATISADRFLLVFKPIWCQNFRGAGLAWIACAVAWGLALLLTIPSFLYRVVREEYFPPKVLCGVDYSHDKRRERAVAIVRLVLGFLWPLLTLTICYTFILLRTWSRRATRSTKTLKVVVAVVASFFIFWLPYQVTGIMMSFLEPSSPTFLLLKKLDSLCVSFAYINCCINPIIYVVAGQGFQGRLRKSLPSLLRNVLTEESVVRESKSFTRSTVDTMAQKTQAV
Method: Migration assay was performed by using polycarbonate membrane with 3.0 µm pore (Corning). U937/C5aR cells were collected and washed twice by PBS; cells were suspended in Hank's balanced salt solution (HBSS)+1% FBS buffer at the density of 6×10^6 cells/ml. Cells were premixed with compound and added to insert well, ligand human C5a and compound were added to bottom well in order, gently mix, incubate for 30 min at 37° C., […]. Put insert plate into bottom well, migrate for 180 min at 37° C., […]. Gently remove the insert well, add 50 μl CellTiter-Glo (Promega), gently shaking for 5 min at room temperature, transfer 150 μl mixture to black plate and read luminescence intensity by
microplate reader (BioTek).

C5aR [3] = molecular target: T1, C5aR; experiment: Calcium mobilization (U937/C5aR or HEK293/C5aR cells, FLIPR); format: cell-based; conditions: agonist human C5a at EC80, FLIPR
How it was run: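 U937 or HEK293 cells expressing human C5aR, plated overnight, then preincubated 60 min with compound. After Fluo-4 Direct dye loading (50 min at 37 °C, 10 min at room temperature), intracellular calcium rise on FLIPR was triggered by human C5a agonist at EC80.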

Sequence of human C5a receptor (C5aR) (P21730 whole entry): as above

| Structure (SMILES) | IC50 [1] [nM] | IC50 (C5aR [2]) [nM] | IC50 (C5aR [3]) [nM] |
| --- | --- | --- | --- |
| Cc1cccc(F)c1C(=O)N1[C@@H]2COC[C@@H]2C[C@H](C(=O)Nc2ccc(N(C)C)cc2)[C@@H]1c1ccc(NC2CCCC2)cc1 [Compound 124, (2R,3S,4aR,7aS)-2-(4-(cyclopentylamino)phenyl)-N-(4-(dimethylamino)phenyl)-1-(2-fluoro-6-methylbenzoyl)octahydrofuro[3,4-b]pyridine-3-carboxamide] | 50 to 500 | 50 to 500 | 2000 to 10000 |
| Cc1cccc(F)c1C(=O)N1C2CCCC2CC(C(=O)Nc2ccc3c(cnn3C)c2)C1c1ccc(CN2CCC[C@@H]2C(F)(F)F)cc1 (stereo in doubt) [Compound 205, cis-1-(2-fluoro-6-methylbenzoyl)-N-(1-methyl-1H-indazol-5-yl)-2-(4-(((R)-2-(trifluoromethyl)pyrrolidin-1-yl)methyl)phenyl)octahydro-1H-cyclopenta[b]pyridine-3-carboxamide] |  | < 50 |  |
| Cc1ccc(NC(=O)C2C[C@@H]3CCC[C@@H]3N(C(=O)c3c(C)cccc3F)C2c2ccc(NC3CCCC3)cc2)cc1C(F)(F)F (relative stereo) [Compound 193, cis-2-(4-(cyclopentylamino)phenyl)-1-(2-fluoro-6-methylbenzoyl)-N-(4-methyl-3-(trifluoromethyl)phenyl)octahydro-1H-cyclopenta[b]pyridine-3-carboxamide] |  | 50 to 500 | < 50 |
| Cc1ccc(NC(=O)[C@H]2CC[C@@H]3Cc4ccccc4C(=O)N3C2c2ccc(NC3CCCC3)cc2)cc1C(F)(F)F (relative stereo) [Compound 43, cis-4-(4-(cyclopentylamino)phenyl)-N-(4-methyl-3-(trifluoromethyl)phenyl)-6-oxo-1,3,4,6,11,11a-hexahydro-2H-pyrido[1,2-b]isoquinoline-3-carboxamide] |  | > 5000 | 2000 to 10000 |
| Cc1ccc(NC(=O)C2C[C@@H]3CN(C)C[C@@H]3N(C(=O)c3c(C)cccc3F)C2c2ccc(N(C)C3CCCC3)cc2)cc1C(F)(F)F (relative stereo) [Compound 144, cis-2-(4-(cyclopentyl(methyl)amino)phenyl)-1-(2-fluoro-6-methylbenzoyl)-6-methyl-N-(4-methyl-3-(trifluoromethyl)phenyl)octahydro-1H-pyrrolo[3,4-b]pyridine-3-carboxamide] |  | 50 to 500 | 2000 to 10000 |
| Cc1ccc(NC(=O)[C@H]2CCCN(c3nccc4cccnc34)[C@H]2c2ccc(N(C(=O)OCc3ccccc3)C3CCCC3)cc2)cc1C(F)(F)F [Compound 164, benzyl cyclopentyl(4-((2R,3S)-3-((4-methyl-3-(trifluoromethyl)phenyl)carbamoyl)-1-(1,7-naphthyridin-8-yl)piperidin-2-yl)phenyl)carbamate] |  | 2000 to 5000 | 2000 to 10000 |
| Cc1ccc(NC(=O)[C@@H]2CCCN(c3ncnc4cccnc34)[C@H]2c2ccc(NC3CCCC3)cc2)cc1C(F)(F)F [Compound 7, (2R,3R)-2-(4-(cyclopentylamino)phenyl)-N-(4-methyl-3-(trifluoromethyl)phenyl)-1-(pyrido[3,2-d]pyrimidin-4-yl)piperidine-3-carboxamide] | 2000 to 5000 |  | 2000 to 10000 |
| Cc1cccc(F)c1C(=O)N1C2CCCC2CC(C(=O)Nc2ccc3c(c2)CCN(C(=O)OC(C)(C)C)C3)C1c1ccc(NC2CCCC2)cc1 (stereo not drawn) [Compound 202, tert-butyl 6-cis-2-(4-(cyclopentylamino)phenyl)-1-(2-fluoro-6-methylbenzoyl)octahydro-1H-cyclopenta[b]pyridine-3-carboxamido)-3,4-dihydroisoquinoline-2(1H)-carboxylate] | > 5000 |  | 2000 to 10000 |
| Cc1ccc(NC(=O)[C@H]2CCCN(S(=O)(=O)c3ccccc3C)[C@H]2c2ccc(NC3CCCC3)cc2)cc1C(F)(F)F [Compound 22, (2R,3S)-2-(4-(cyclopentylamino)phenyl)-N-(4-methyl-3-(trifluoromethyl)phenyl)-1-(o-tolylsulfonyl)piperidine-3-carboxamide] | 500 to 2000 |  | > 10000 |
| Cc1cc(C)c(S(=O)(=O)N2CCC[C@H](C(=O)Nc3ccc(C)c(C(F)(F)F)c3)[C@@H]2c2ccc(NC3CCCC3)cc2)c(C)c1 [Compound 13, (2R,3S)-2-(4-(cyclopentylamino)phenyl)-1-(mesitylsulfonyl)-N-(4-methyl-3-(trifluoromethyl)phenyl)piperidine-3-carboxamide] | 2000 to 5000 |  | 2000 to 10000 |
| Cc1ccc(NC(=O)[C@H]2CCCN(S(=O)(=O)Cc3ccccc3)[C@H]2c2ccc(NC3CCCC3)cc2)cc1C(F)(F)F [Compound 40, (2R,3S)-1-(benzylsulfonyl)-2-(4-(cyclopentylamino)phenyl)-N-(4-methyl-3-(trifluoromethyl)phenyl)piperidine-3-carboxamide] | < 50 |  | 2000 to 10000 |
| Cc1ccc(NC(=O)[C@@H]2CC(O)CN(C(=O)c3c(C)cccc3F)[C@@H]2c2ccc(NC3CCCC3)cc2)cc1C(F)(F)F (relative stereo) [Compound 204, cis-2-(4-(cyclopentylamino)phenyl)-1-(2-fluoro-6-methylbenzoyl)-5-hydroxy-N-(4-methyl-3-(trifluoromethyl)phenyl)piperidine-3-carboxamide] |  | 50 to 500 | 2000 to 10000 |

More lines, now with the values ahead:

| IC50 [1] [nM] | IC50 (C5aR [2]) [nM] | IC50 (C5aR [3]) [nM] | Structure (SMILES) |
| --- | --- | --- | --- |
|  | > 5000 | 2000 to 10000 | Cc1ccc(NC(=O)[C@H]2CCCN(S(=O)(=O)c3c(F)c(F)c(F)c(F)c3F)[C@H]2c2ccc(NC3CCCC3)cc2)cc1C(F)(F)F [Compound 37, (2R,3S)-2-(4-(cyclopentylamino)phenyl)-N-(4-methyl-3-(trifluoromethyl)phenyl)-1-((perfluorophenyl)sulfonyl)piperidine-3-carboxamide] |
|  | 500 to 2000 | 2000 to 10000 | Cc1ccc(NC(=O)[C@H]2CCCN(C(=O)c3c(C)cccc3F)[C@H]2C2CCC3(CCOC3)CC2)cc1C(F)(F)F (relative stereo) [Compound 203, cis-1-(2-fluoro-6-methylbenzoyl)-N-(4-methyl-3-(trifluoromethyl)phenyl)-2-(2-oxaspiro[4.5]decan-8-yl)piperidine-3-carboxamide] |
|  | < 50 | 50 to 500 | Cc1cccc(F)c1C(=O)N1[C@@H]2CCC[C@@H]2C[C@H](C(=O)Nc2ccc3cnn(C)c3c2)[C@@H]1c1ccc(NC2CCCC2)cc1 (racemic) [Compound 66, cis-2-(4-(cyclopentylamino)phenyl)-1-(2-fluoro-6-methylbenzoyl)-N-(1-methyl-1H-indazol-6-yl)octahydro-1H-cyclopenta[b]pyridine-3-carboxamide] |
| 500 to 2000 |  | 2000 to 10000 | Cc1ccc(NC(=O)[C@H]2CCCN(S(=O)(=O)c3cccnc3Cl)[C@H]2c2ccc(NC3CCCC3)cc2)cc1C(F)(F)F [Compound 36, (2R,3S)-1-((2-chloropyridin-3-yl)sulfonyl)-2-(4-(cyclopentylamino)phenyl)-N-(4-methyl-3-(trifluoromethyl)phenyl)piperidine-3-carboxamide] |
|  | > 5000 | 2000 to 10000 | Cc1ccc(NC(=O)[C@H]2CCCN[C@H]2c2ccc(N(c3nccc4cccnc34)C3CCCC3)cc2)cc1C(F)(F)F [Compound 168, (2R,3S)-2-(4-(cyclopentyl(1,7-naphthyridin-8-yl)amino)phenyl)-N-(4-methyl-3-(trifluoromethyl)phenyl)piperidine-3-carboxamide] |
|  | > 5000 | 2000 to 10000 | Cc1cccc(F)c1C(=O)N1CCC[C@H](c2nc3cc(C(C)(C)C)ccc3o2)[C@@H]1c1ccc(NC2CCCC2)cc1 [Compound 181, ((2R,3S)-3-(5-(tert-butyl)benzo[d]oxazol-2-yl)-2-(4-(cyclopentylamino)phenyl)piperidin-1-yl)(2-fluoro-6-methylphenyl)methanone] |
| 2000 to 5000 |  | 2000 to 10000 | Cc1ccc(NC(=O)[C@H]2CCCN(c3ncnc4cccnc34)[C@H]2c2ccc(N(C(=O)OCc3ccccc3)C3CCCC3)cc2)cc1C(F)(F)F [Compound 166, benzyl cyclopentyl(4-((2R,3S)-3-((4-methyl-3-(trifluoromethyl)phenyl)carbamoyl)-1-(pyrido[3,2-d]pyrimidin-4-yl)piperidin-2-yl)phenyl)carbamate] |
| 2000 to 5000 |  | 2000 to 10000 | Cc1ccc(NC(=O)[C@H]2CCCN(S(=O)(=O)c3ccccc3Br)[C@H]2c2ccc(NC3CCCC3)cc2)cc1C(F)(F)F [Compound 27, (2R,3S)-1-((2-bromophenyl)sulfonyl)-2-(4-(cyclopentylamino)phenyl)-N-(4-methyl-3-(trifluoromethyl)phenyl)piperidine-3-carboxamide] |
| 2000 to 5000 |  | > 10000 | Cc1ccc(NC(=O)[C@H]2CCCN(S(=O)(=O)c3ccccc3Cl)[C@H]2c2ccc(NC3CCCC3)cc2)cc1C(F)(F)F [Compound 26, (2R,3S)-1-((2-chlorophenyl)sulfonyl)-2-(4-(cyclopentylamino)phenyl)-N-(4-methyl-3-(trifluoromethyl)phenyl)piperidine-3-carboxamide] |

Source: US20240043439A1, “COMPOUNDS AS C5AR INHIBITORS” (Kira Pharmaceuticals (Suzhou) Ltd., priority 2020, published 2024)
